Measurements: patent US20240409585A1, “MACROCYCLIC IMMUNOMODULATORS” (priority 2021, published 2024)
Read-outs that look alike come from different tables or passages of the source. Numbered stars: 1 amine (or outer) side, 2 acyl side, 3 side chain; on linkers, the order of the positions; unused ones are H or OH. Bridge positions count the residues as written; N and C are the ends. Square brackets hold non-standard residues; d marks the D form. Peptide text beside a SMILES is read from it. * marks the point of attachment. Phe(4-CH2CH2COOH) = N[C@@H](Cc1ccc(CCC(=O)O)cc1)C(=O)O; Phe(3-CF3) = N[C@@H](Cc1cccc(C(F)(F)F)c1)C(=O)O; X8 = N=C(N)NCc1cccc(C[C@H](N[*:1])C(=O)[*:2])c1; Ala(morpholin-4-yl) = N[C@@H](CN1CCOCC1)C(=O)O; Phe(4-COOH) = N[C@@H](Cc1ccc(C(=O)O)cc1)C(=O)O; Phe(2-CF3) = N[C@@H](Cc1ccccc1C(F)(F)F)C(=O)O; Phe(3,5-F2) = N[C@@H](Cc1cc(F)cc(F)c1)C(=O)O; Bip = N[C@@H](Cc1ccc(-c2ccccc2)cc1)C(=O)O; Phe(4-Cl) = N[C@@H](Cc1ccc(Cl)cc1)C(=O)O; Abu(3R-NH2) = C[C@@H](N)[C@H](N)C(=O)O; Phe(3-Me) = Cc1cccc(C[C@H](N)C(=O)O)c1; Dap(CONH2) = NC(=O)NC[C@H](N)C(=O)O; hPhe = N[C@@H](CCc1ccccc1)C(=O)O; 3Pal = N[C@@H](Cc1cccnc1)C(=O)O; Cha = N[C@@H](CC1CCCCC1)C(=O)O; Carboxymethyl = O=C(O)C*; NMeA = CN[C@@H](C)C(=O)O; Orn = NCCC[C@H](N)C(=O)O; Dab = NCC[C@H](N)C(=O)O

Tests used:
[1] = biological target: T1, PD1-PDL1 protein-protein binding interaction [hPD1(25-167)-hIgG, hPD-L1 (19-239)-6xHis] (Homo sapiens, UniProt Q15116); assay: HTRF Assay (TR-FRET); settings: 5 nM hPD1-hIgG, 5 nM hPD-L1-6xHis, 24 hours at 25° C., head μM
T1 construct: hPD1(25-167)-hIgG, BMS
Experimental: A time-resolved fluorescence resonance energy transfer (TR-FRET) assay was employed to measure the inhibition of the PD1-PDL1 protein-protein binding interaction. The reaction buffer was prepared by mixing the HiBlock buffer and LANCE detection buffer (PerkinElmer, TRF1011F and CR97-100) at a 1:1 ratio. Assay reactions contained 5 nM human programmed cell death 1 [hPD1(25-167)-hIgG, BMS], 5 nM human programmed cell death ligand 1 [hPD-L1 (19-239)-6×His, BMS], in the presence of 1 nM LANCE Eu-W1024 Anti-Human IgG (Eu-anti hIgG, PerkinElmer, AD0074) and 20 nM SureLight Allophycocyanin-anti-6×His antibody (APC-anti-6×His, PerkinElmer, AD0059H). Test compounds were evaluated in a 10-point dose-response format with serial three-fold dilutions starting from a 2 uM top concentration. Reactions were carried out in a total volume of 10 uL in 384-well microtiter plates (Proxiplate white, PerkinElmer, 6008289). Plates were sealed and incubated for 24 hours at 25° C. After 24 hours, the TR-FRET signal was measured using a PerkinElmer EnVision multimode plate reader and the resulting ratiometric data set (signal at 665 nm/615 nm, multiplied by a factor of 10,000) was recorded. The concentration giving half-maximal inhibition (the IC50) was obtained by fitting the data to a four-parameter logistic equation using Graphpad Prism or Dotmatics.

[2] = biological target: T2, Alexa fluor-647 labeled human PD-L1-Ig binding to Jurkat cell line over-expressing human PD-1 (Homo sapiens, UniProt Q15116); assay: Jurkat-PD-1 Cell Binding High-Content Screening Assay (CBA): Method 3 (Alexa fluor-647 labeled PD-L1-Ig); settings: Jurkat-PD-1 cells, Alexa fluor-647 labeled PD-L1-Ig 177 nM
T2 construct: expressed in transfected cells; host or cells: Jurkat
Method in brief: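 Jurkat cells over-expressing human PD-1 in RPMI/10% FCS were preincubated 2 h at 37 °C with compound, then exposed 1 h to Alexa fluor-647 labeled human PD-L1-Ig (177 nM final). Cells fixed in 4% paraformaldehyde with Hoechst 33342 and binding quantified by high-content imaging.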

[3] = head μM, read-out: CBA Method 3 μM

T1 sequence (Q15116 25-167): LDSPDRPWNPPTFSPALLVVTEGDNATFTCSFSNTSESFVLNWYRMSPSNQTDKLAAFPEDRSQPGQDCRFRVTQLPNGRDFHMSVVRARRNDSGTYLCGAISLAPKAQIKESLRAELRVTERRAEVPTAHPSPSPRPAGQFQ
T2 sequence (Q15116 25-288): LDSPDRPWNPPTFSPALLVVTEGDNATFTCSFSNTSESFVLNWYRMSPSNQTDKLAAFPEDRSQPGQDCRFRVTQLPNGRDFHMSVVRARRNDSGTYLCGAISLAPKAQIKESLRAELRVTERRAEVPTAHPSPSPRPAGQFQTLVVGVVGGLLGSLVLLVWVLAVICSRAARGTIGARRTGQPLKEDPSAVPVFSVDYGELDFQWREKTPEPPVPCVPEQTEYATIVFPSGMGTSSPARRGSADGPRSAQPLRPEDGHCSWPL

IC50 [1]	IC50 ([2]; nM, read-out: CBA Method 3)	IC50 [2, 3]	Compound
0.03 µM	2.2 nM	–	CC(C)C[C@H]1NC(=O)[C@H](C)N(C)C(=O)[C@H](CCC(N)=O)NC(=O)[C@H](Cc2ccc(-c3ccccc3)cc2)NC(=O)[C@H](CCc2ccccc2)NC(=O)[C@H](Cc2cccc(C(F)(F)F)c2)NC(=O)[C@H](CC(=O)O)NC(=O)[C@H](Cc2cccnc2)NC(=O)[C@H](CN2CCOCC2)NC(=O)CSC[C@@H](C(=O)N[C@@H](CCN)C(N)=O)NC(=O)[C@H](CCCN)NC(=O)[C@H](C(C)C)NC(=O)[C@H](CC2CCCCC2)NC(=O)[C@H](CCN)NC1=O [Example 5243] ({CH2CO}-[Ala(morpholin-4-yl)][3Pal]D[Phe(3-CF3)][hPhe][Bip]Q[NMeA][dL][Dab][Cha]V[Orn]C[Dab]-NH2; thioether N-14)
0.03 µM	6.4 nM	–	CC(C)C[C@H]1NC(=O)[C@H](C)N(C)C(=O)[C@H](CCC(N)=O)NC(=O)[C@H](Cc2ccc(-c3ccccc3)cc2)NC(=O)[C@H](CCc2ccccc2)NC(=O)[C@H](Cc2cccc(C(F)(F)F)c2)NC(=O)[C@H](CC(=O)O)NC(=O)[C@H](Cc2cccnc2)NC(=O)[C@H]([C@@H](C)N)NC(=O)CSC[C@@H](C(=O)N[C@@H](CCN)C(N)=O)NC(=O)[C@H](CCCN)NC(=O)[C@H](C(C)C)NC(=O)[C@H](CC2CCCCC2)NC(=O)[C@H](CCN)NC1=O [Example 5244] ({CH2CO}-[Abu(3R-NH2)][3Pal]D[Phe(3-CF3)][hPhe][Bip]Q[NMeA][dL][Dab][Cha]V[Orn]C[Dab]-NH2; thioether N-14)
0.01 µM	–	10 nM	CC(C)C[C@H]1NC(=O)[C@H](C)N(C)C(=O)[C@H](CCC(N)=O)NC(=O)[C@H](Cc2ccc(-c3ccccc3)cc2)NC(=O)[C@H](CCc2ccccc2)NC(=O)[C@H](Cc2cccc(C(F)(F)F)c2)NC(=O)[C@H](CC(=O)O)NC(=O)[C@H](CCC(N)=O)NC(=O)[C@H](CN2CCOCC2)NC(=O)CSC[C@@H](C(=O)N[C@@H](CCN)C(N)=O)NC(=O)[C@H](CCCN)NC(=O)[C@H](C(C)C)NC(=O)[C@H](CC2CCCCC2)NC(=O)[C@H](CCN)NC1=O [Example 5245] ({CH2CO}-[Ala(morpholin-4-yl)]QD[Phe(3-CF3)][hPhe][Bip]Q[NMeA][dL][Dab][Cha]V[Orn]C[Dab]-NH2; thioether N-14)
0.015 µM	3 nM	–	Cc1cccc(C[C@@H]2NC(=O)[C@H](CC(=O)O)NC(=O)[C@H](Cc3ccc(OCC(=O)O)cc3)NC(=O)[C@H](Cc3cccc(CNC(=N)N)c3)NC(=O)CSC[C@@H](C(=O)N[C@@H](CCN)C(N)=O)NC(=O)[C@H](CCCN)NC(=O)[C@H](C(C)C)NC(=O)[C@H](CC3CCCCC3)NC(=O)[C@H](CCN)NC(=O)[C@@H](CC(C)C)NC(=O)[C@H](C)N(C)C(=O)[C@H](CCC(N)=O)NC(=O)[C@H](Cc3ccc(-c4ccccc4)cc3)NC(=O)[C@H](Cc3ccc(C(=O)O)cc3)NC2=O)c1 [Example 5279] ({CH2CO}-[X8]Y(Carboxymethyl)D[Phe(3-Me)][Phe(4-COOH)][Bip]Q[NMeA][dL][Dab][Cha]V[Orn]C[Dab]-NH2; thioether N-14)
0.01 µM	–	200 nM	Cc1cccc(C[C@@H]2NC(=O)[C@H](CC(=O)O)NC(=O)[C@H](Cc3ccc(OCC(=O)O)cc3)NC(=O)[C@H](Cc3cc(F)cc(F)c3)NC(=O)CSC[C@@H](C(=O)N[C@@H](CCN)C(N)=O)NC(=O)[C@H](CCCN)NC(=O)[C@H](C(C)C)NC(=O)[C@H](CC3CCCCC3)NC(=O)[C@H](CCN)NC(=O)[C@@H](CC(C)C)NC(=O)[C@H](C)N(C)C(=O)[C@H](CCC(N)=O)NC(=O)[C@H](Cc3ccc(-c4ccccc4)cc3)NC(=O)[C@H](Cc3ccc(C(=O)O)cc3)NC2=O)c1 [Example 5284] ({CH2CO}-[Phe(3,5-F2)]Y(Carboxymethyl)D[Phe(3-Me)][Phe(4-COOH)][Bip]Q[NMeA][dL][Dab][Cha]V[Orn]C[Dab]-NH2; thioether N-14)
0.08 µM	1 nM	–	Cc1cccc(C[C@@H]2NC(=O)[C@H](CC(=O)O)NC(=O)[C@H](Cc3ccc(OCC(=O)O)cc3)NC(=O)[C@H](Cc3ccc(Cl)cc3)NC(=O)CSC[C@@H](C(=O)N[C@@H](CCN)C(N)=O)NC(=O)[C@H](CCCN)NC(=O)[C@H](C(C)C)NC(=O)[C@H](CC3CCCCC3)NC(=O)[C@H](CCN)NC(=O)[C@@H](CC(C)C)NC(=O)[C@H](C)N(C)C(=O)[C@H](CCC(N)=O)NC(=O)[C@H](Cc3ccc(-c4ccccc4)cc3)NC(=O)[C@H](Cc3ccc(C(=O)O)cc3)NC2=O)c1 [Example 5288] ({CH2CO}-[Phe(4-Cl)]Y(Carboxymethyl)D[Phe(3-Me)][Phe(4-COOH)][Bip]Q[NMeA][dL][Dab][Cha]V[Orn]C[Dab]-NH2; thioether N-14)
0.03 µM	0.2 nM	–	Cc1cccc(C[C@@H]2NC(=O)[C@H](CC(=O)O)NC(=O)[C@H](Cc3ccc(OCC(=O)O)cc3)NC(=O)[C@H](Cc3ccccc3C(F)(F)F)NC(=O)CSC[C@@H](C(=O)N[C@@H](CCN)C(N)=O)NC(=O)[C@H](CCCN)NC(=O)[C@H](C(C)C)NC(=O)[C@H](CC3CCCCC3)NC(=O)[C@H](CCN)NC(=O)[C@@H](CC(C)C)NC(=O)[C@H](C)N(C)C(=O)[C@H](CCC(N)=O)NC(=O)[C@H](Cc3ccc(-c4ccccc4)cc3)NC(=O)[C@H](Cc3ccc(C(=O)O)cc3)NC2=O)c1 [Example 5292] ({CH2CO}-[Phe(2-CF3)]Y(Carboxymethyl)D[Phe(3-Me)][Phe(4-COOH)][Bip]Q[NMeA][dL][Dab][Cha]V[Orn]C[Dab]-NH2; thioether N-14)
0.01 µM	0.5 nM	–	Cc1cccc(C[C@@H]2NC(=O)[C@H](CC(=O)O)NC(=O)[C@H](Cc3ccc(CCC(=O)O)cc3)NC(=O)[C@H](CNC(N)=O)NC(=O)CSC[C@@H](C(=O)N[C@@H](CCN)C(N)=O)NC(=O)[C@H](CCCN)NC(=O)[C@H](C(C)C)NC(=O)[C@H](CC3CCCCC3)NC(=O)[C@H](CCN)NC(=O)[C@@H](CC(C)C)NC(=O)[C@H](C)N(C)C(=O)[C@H](CCC(N)=O)NC(=O)[C@H](Cc3ccc(-c4ccccc4)cc3)NC(=O)[C@H](Cc3ccc(C(=O)O)cc3)NC2=O)c1 [Example 5298] ({CH2CO}-[Dap(CONH2)][Phe(4-CH2CH2COOH)]D[Phe(3-Me)][Phe(4-COOH)][Bip]Q[NMeA][dL][Dab][Cha]V[Orn]C[Dab]-NH2; thioether N-14)
